{
  "source": "patent US20230272465A1",
  "about": "“Systems and Methods to Enhance RNA Transcription and Uses Thereof” (The Board of Trustees of the Leland Stanford Junior …, priority 2020, published 2023)",
  "format_in_all_cases": "biochemical",
  "key": {"[1]": {"biological_target": "T1, T7 RNA polymerase (Escherichia phage T7, UniProt P00573)", "T1 sequence (P00573 whole entry)": "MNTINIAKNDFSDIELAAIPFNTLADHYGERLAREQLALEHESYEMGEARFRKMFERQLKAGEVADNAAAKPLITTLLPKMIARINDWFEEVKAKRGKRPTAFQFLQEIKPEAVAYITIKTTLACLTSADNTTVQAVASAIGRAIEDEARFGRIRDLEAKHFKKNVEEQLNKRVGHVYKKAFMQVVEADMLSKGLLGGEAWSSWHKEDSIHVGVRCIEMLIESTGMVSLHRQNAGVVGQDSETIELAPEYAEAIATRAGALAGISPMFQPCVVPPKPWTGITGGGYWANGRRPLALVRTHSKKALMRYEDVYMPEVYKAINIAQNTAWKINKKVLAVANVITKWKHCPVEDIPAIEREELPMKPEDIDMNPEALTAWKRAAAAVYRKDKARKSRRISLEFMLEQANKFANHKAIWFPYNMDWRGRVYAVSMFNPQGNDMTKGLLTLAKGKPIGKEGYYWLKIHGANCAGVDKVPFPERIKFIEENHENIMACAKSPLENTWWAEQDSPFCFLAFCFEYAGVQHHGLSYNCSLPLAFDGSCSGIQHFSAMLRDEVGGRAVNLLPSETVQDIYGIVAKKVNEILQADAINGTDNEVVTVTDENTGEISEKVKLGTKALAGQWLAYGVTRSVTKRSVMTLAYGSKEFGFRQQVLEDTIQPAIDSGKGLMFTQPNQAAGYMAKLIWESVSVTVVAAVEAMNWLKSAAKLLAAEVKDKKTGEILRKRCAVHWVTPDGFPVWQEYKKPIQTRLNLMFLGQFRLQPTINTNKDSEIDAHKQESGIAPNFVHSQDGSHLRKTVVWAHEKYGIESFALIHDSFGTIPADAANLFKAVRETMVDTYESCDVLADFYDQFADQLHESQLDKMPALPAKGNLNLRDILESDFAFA", "assay": "Gel electrophoresis of T7 transcription reaction products", "settings": "0.1 mM, 1 mM, 10 mM VRC versus 0 mM control; FIG. 3", "method": "Methods: A series of standard RNA transcription reactions were performed using T7 polymerase spiked with 0 mM, 0.1 mM, 1 mM, and 10 mM VRC. Post-incubation, the contents of each reaction were electrophoresed on a gel to qualitatively identify reaction product sizes."}, "[2]": {"biological_target": "T2, SP6 RNA polymerase (Enterobacteria phage SP6, UniProt P06221)", "T2 sequence (P06221 1-874)": "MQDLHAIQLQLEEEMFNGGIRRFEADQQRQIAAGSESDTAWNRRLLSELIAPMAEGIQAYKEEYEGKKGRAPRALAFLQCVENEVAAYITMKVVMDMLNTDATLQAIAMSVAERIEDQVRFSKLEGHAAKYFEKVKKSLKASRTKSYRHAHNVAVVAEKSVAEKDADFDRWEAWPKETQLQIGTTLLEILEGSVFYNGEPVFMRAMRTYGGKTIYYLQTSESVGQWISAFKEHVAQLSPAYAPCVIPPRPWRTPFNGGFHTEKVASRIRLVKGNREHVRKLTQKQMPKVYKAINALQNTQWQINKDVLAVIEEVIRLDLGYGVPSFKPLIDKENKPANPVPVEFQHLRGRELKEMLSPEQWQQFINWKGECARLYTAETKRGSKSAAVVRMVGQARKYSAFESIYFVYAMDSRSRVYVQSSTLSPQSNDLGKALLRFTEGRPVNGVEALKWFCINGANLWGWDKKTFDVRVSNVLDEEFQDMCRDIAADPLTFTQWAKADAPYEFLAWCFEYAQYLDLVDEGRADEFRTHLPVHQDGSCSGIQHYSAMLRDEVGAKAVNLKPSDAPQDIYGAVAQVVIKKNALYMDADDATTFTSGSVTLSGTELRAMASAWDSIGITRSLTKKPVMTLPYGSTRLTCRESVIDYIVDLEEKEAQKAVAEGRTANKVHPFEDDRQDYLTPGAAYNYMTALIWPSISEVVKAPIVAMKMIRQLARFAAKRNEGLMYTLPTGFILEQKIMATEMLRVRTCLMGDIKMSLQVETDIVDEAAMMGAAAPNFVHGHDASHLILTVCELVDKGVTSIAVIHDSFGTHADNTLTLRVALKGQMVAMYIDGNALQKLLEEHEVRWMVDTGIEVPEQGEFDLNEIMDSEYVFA", "assay": "Real-time monitoring of SP6 RNA polymerase transcription reaction", "settings": "FIG. 1B", "method": "Turning to FIGS. 1A-1B, exemplary data of RNA yield measured from real time monitoring of RNA transcription reactions in accordance with certain embodiments are illustrated. In particular, FIG. 1A illustrates exemplary T7 RNA polymerase transcription reaction embodiments using 0.1 mM, 1 mM, and 10 mM concentrations of VRC against a 0 mM control.\nHowever, FIG. 1B illustrates exemplary SP6 RNA polymerase transcription reaction embodiments using 0.1 mM, 1 mM, and 10 mM concentrations of VRC against a 0 mM control."}, "[3]": {"biological_target": "T1, T7 RNA polymerase", "assay": "RNA yield after post-reaction clean-up, T7 polymerase transcription (NanoDrop UV-Vis)", "settings": "37° C., 4 hours, FIG. 2", "method": "Methods: A series of standard RNA transcription reactions were performed using T7 polymerase spiked with 0 mM, 0.1 mM, 1 mM, and 10 mM VRC. The reaction was performed at 37° C. for 4 hours in a thermocycler. A post-reaction clean-up was used to remove any reagents, including enzymes, NTPs, buffers. The reaction was quantified using a NanoDrop UV-Vis spectrometer."}, "[4]": {"biological_target": "T1, T7 RNA polymerase", "assay": "Real-time RNA transcription reaction with T7 polymerase (fluorescence, TECAN plate reader)", "settings": "10 mM VRC, room temperature (~20° C.), 9000 seconds, FIG. 1A", "method": "Methods: A series of standard RNA transcription reactions were performed using T7 polymerase spiked with 0 mM, 0.1 mM, 1 mM, and 10 mM VRC. The reaction was performed at room temperature (˜20° C.) for 9000 seconds in a TECAN plate reader. Reaction yield was measured in reach reaction by measuring fluorescence in real-time using the TECAN plate reader."}},
  "note": "Entries after “also recorded” stand apart in the source; their conditions may differ.",
  "data": [
    {"substance": "ribonucleoside vanadyl complex [VRC]", "values": [
      {"measurement": "reaction product sizes / degradation products on gel", "setting": "[1]", "value": "no degradation of products; also recorded: no discernable differences in product sizes"},
      {"measurement": "RNA yield versus 0 mM control", "setting": "[2]; 0.1 mM VRC", "value": "no advantage in yield over the control"},
      {"measurement": "RNA yield versus 0 mM control", "setting": "[2]; 1 mM VRC", "value": "inhibition of SP6 RNA polymerase"},
      {"measurement": "RNA yield versus 0 mM control", "setting": "[2]; 10 mM VRC", "value": "inhibition of SP6 RNA polymerase"},
      {"measurement": "increase in RNA yield over 0 mM control", "setting": "[3]; 0.1 mM VRC", "value": "approximately 2.3 fold"},
      {"measurement": "increase in RNA yield over 0 mM control", "setting": "[3]; 1 mM VRC", "value": "approximately 1.7 fold"},
      {"measurement": "increase in RNA yield over 0 mM control", "setting": "[3]; 10 mM VRC", "value": "approximately 1.5 fold"},
      {"measurement": "increase in RNA yield over 0 mM control", "setting": "[4]", "value": "~1.5", "unit": "fold"}
    ]}
  ]
}
